{"source": "patent US11034692B1", "about": "(Genentech, Inc., priority 2017, dated 2021)"}
{"molecular_target": "HPK1 (Homo sapiens, UniProt Q92918)", "sequence (Q92918 whole entry, looked up)": "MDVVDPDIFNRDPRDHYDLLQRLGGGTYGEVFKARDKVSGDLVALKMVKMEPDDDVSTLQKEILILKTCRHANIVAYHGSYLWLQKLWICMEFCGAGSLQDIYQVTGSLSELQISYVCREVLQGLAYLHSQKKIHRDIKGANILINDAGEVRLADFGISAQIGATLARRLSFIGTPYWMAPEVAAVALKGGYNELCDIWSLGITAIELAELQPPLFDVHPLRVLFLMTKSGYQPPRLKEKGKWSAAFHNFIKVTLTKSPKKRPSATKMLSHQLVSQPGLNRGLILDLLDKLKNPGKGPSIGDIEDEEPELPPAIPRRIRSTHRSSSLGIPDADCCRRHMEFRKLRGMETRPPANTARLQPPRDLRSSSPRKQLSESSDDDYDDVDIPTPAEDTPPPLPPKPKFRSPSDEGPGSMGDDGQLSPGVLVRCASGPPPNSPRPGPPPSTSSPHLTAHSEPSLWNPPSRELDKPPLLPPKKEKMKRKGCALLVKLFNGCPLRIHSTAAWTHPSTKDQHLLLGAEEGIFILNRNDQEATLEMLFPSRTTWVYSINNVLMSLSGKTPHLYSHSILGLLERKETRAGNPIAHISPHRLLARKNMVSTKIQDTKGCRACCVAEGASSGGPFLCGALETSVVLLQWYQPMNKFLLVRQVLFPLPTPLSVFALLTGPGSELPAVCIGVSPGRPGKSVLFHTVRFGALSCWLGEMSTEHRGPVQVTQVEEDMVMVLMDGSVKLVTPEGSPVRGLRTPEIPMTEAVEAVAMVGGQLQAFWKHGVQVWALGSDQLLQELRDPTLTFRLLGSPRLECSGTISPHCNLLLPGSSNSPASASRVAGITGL", "assay": "HPK1 Lantha Binding Assay (\"Lanth\")", "conditions": "Table B1-1, read-out: HPK1 Ki (μM) (Lanth)", "how_it_was_run": "(§1)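 Compounds in an 11-point 5-fold series were preincubated 1 h at 23 C with 2 nM kinase plus 2 nM Eu-anti-GST antibody. Then 15 nM Tracer222 was added for another hour, and time-resolved FRET was read at 665/615 nm. Ki values come from a Morrison tight-binding model that uses the tracer Kd.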", "units": {"Ki": "nM"}}
{"compound": "Cc1ccncc1-c1cc2cc(Nc3cc(C)n(CCO)n3)ncc2c(N)n1", "note": "[Compound 262, 2-(3-[[8-amino-6-(4-methylpyridin-3-yl)-2,7-naphthyridin-3-yl]amino]-5-methyl-1H-pyrazol-1-yl)ethan-1-ol]", "Ki": 0.439}
{"compound": "CNC(=O)c1c(C)c(-c2cc3cc(NC(=O)[C@H]4C[C@@H]4C#N)ncc3c(N)n2)c(C)n1C", "note": "(racemic) [Compound 180, (±)-trans-4-[1-amino-6-[[trans-2-cyanocyclopropanecarbonyl]amino]-2,7-naphthyridin-3-yl]-N,1,3,5-tetramethyl-pyrrole-2-carboxamide]", "Ki": 44}
{"compound": "CNc1cncc(-c2cc3cc(NC(=O)[C@@H]4C[C@@H]4F)ncc3c(N)n2)c1C", "note": "(racemic) [Compound 216, (+/−)-cis-N-(8-amino-6-(4-methyl-5-(methylamino)pyridin-3-yl)-2,7-naphthyridin-3-yl)-2-fluorocyclopropanecarboxamide]", "Ki": 3.53}
{"compound": "CC(C)c1ccncc1-c1cc2cc(NC(=O)[C@H]3C[C@@H]3C#N)ncc2c(N)n1", "note": "(racemic) [Compound 50, trans-N-(8-amino-6-(4-isopropylpyridin-3-yl)-2,7-naphthyridin-3-yl)-2-cyanocyclopropanecarboxamide]", "Ki": 5.9}
{"compound": "CC(=O)N1CCC([C@@H]2C[C@H]2C(=O)Nc2cc3cc(-c4cnccc4C)nc(N)c3cn2)CC1", "note": "(racemic) [Compound 166, (±)-trans-2-(1-acetylpiperidin-4-yl)-N-(8-amino-6-(4-methylpyridin-3-yl)-2,7-naphthyridin-3-yl)cyclopropanecarboxamide]", "Ki": 1.5}
{"compound": "Cc1ccncc1-c1cc2cc(NC(=O)[C@H]3C[C@]34CCN(S(C)(=O)=O)C4)ncc2c(N)n1", "note": "(racemic) [Compound 149, (±)-cis-N-(8-amino-6-(4-methylpyridin-3-yl)-2,7-naphthyridin-3-yl)-5-(methylsulfonyl)-5-azaspiro[2.4]heptane-1-carboxamide]", "Ki": 0.78}
{"compound": "Cc1ccncc1-c1cc2cc(NC(=O)[C@@H]3C[C@H]3F)ncc2c(N)n1", "note": "(racemic) [Compound 51, (±)-trans-N-(8-amino-6-(4-methylpyridin-3-yl)-2,7-naphthyridin-3-yl)-2-fluorocyclopropanecarboxamide]", "Ki": 1.3}
{"compound": "Cc1ccncc1-c1cc2cc(NC(=O)NC(C)CO)ncc2c(N)n1", "note": "(racemic) [Compound 177, 1-(8-amino-6-(4-methylpyridin-3-yl)-2,7-naphthyridin-3-yl)-3-(1-hydroxypropan-2-yl)urea]", "Ki": 8.5}
{"compound": "CC(C)(O)Cc1ccncc1-c1cc2cc(NC(=O)[C@H]3C[C@@H]3C#N)ncc2c(N)n1", "note": "(racemic) [Compound 225, (+/−)-trans-N-(8-amino-6-(4-(2-hydroxy-2-methylpropyl)pyridin-3-yl)-2,7-naphthyridin-3-yl)-2-cyanocyclopropanecarboxamide]", "Ki": 84.2}
{"compound": "Cc1nn(C)c(C)c1-c1cc2cc(NC(=O)[C@@H]3C[C@@H]3F)ncc2c(N)n1", "note": "(racemic) [Compound 3, (±)-cis-N-(8-amino-6-(1,3,5-trimethyl-1H-pyrazol-4-yl)-2,7-naphthyridin-3-yl)-2-fluorocyclopropanecarboxamide]", "Ki": 5.14}
{"compound": "CCNC(=O)[C@H]1C[C@H]1C(=O)Nc1cc2cc(-c3cnccc3C)nc(N)c2cn1", "note": "(racemic) [Compound 137, (±)-(cis)-N1-(8-amino-6-(4-methylpyridin-3-yl)-2,7-naphthyridin-3-yl)-N2-ethylcyclopropane-1,2-dicarboxamide]", "Ki": 110}
{"compound": "Nc1nc(-c2cnccc2C2CC2)cc2cc(NC(=O)[C@@H]3C[C@@H]3F)ncc12", "note": "(racemic) [Compound 46, (±)-cis-N-(8-amino-6-(4-cyclopropylpyridin-3-yl)-2,7-naphthyridin-3-yl)-2-fluorocyclopropanecarboxamide]", "Ki": 1.52}
{"compound": "Cc1ccncc1-c1cc2cc(NC(=O)[C@@H]3C[C@H]3C)ncc2c(N)n1", "note": "(racemic) [Compound 118, (±)-trans-N-(8-amino-6-(4-methylpyridin-3-yl)-2,7-naphthyridin-3-yl)-2-methylcyclopropane-1-carboxamide]", "Ki": 0.476}
{"compound": "Cc1ccncc1-c1cc2cc(NC(=O)[C@@H]3C[C@H]3c3cn[nH]c3)ncc2c(N)n1", "note": "(racemic) [Compound 122, (±)-trans-N-[8-amino-6-(4-methyl-3-pyridyl)-2,7-naphthyridin-3-yl]-2-(1H-pyrazol-4-yl)cyclopropanecarboxamide]", "Ki": 0.0629}
{"compound": "Cn1cc([C@H]2C[C@@H]2C(=O)Nc2cc3c(Cl)c(-c4cnccc4CCO)nc(N)c3cn2)cn1", "note": "(single isomer, unassigned) [Compound 332]", "Ki": 5.62}
{"compound": "Cn1cc(-c2cc3cc(NC(=O)[C@H]4C[C@@H]4F)ncc3c(N)n2)cn1", "note": "(racemic) [Compound 8, trans-N-(8-amino-6-(1-methyl-1H-pyrazol-4-yl)-2,7-naphthyridin-3-yl)-2-fluorocyclopropanecarboxamide]", "Ki": 1.64}
{"compound": "Cc1cc(N)ncc1-c1cc2cc(NC(=O)[C@@H]3C[C@@H]3F)ncc2c(N)n1", "note": "(racemic) [Compound 16, (±)-cis-N-(8-amino-6-(6-amino-4-methylpyridin-3-yl)-2,7-naphthyridin-3-yl)-2-fluorocyclopropanecarboxamide]", "Ki": 7.21}
{"compound": "Nc1nc(-c2cccnc2)cc2cc(NC(=O)[C@@H]3C[C@@H]3F)ncc12", "note": "(racemic) [Compound 106, (±)-cis-N-(8-amino-6-(pyridin-3-yl)-2,7-naphthyridin-3-yl)-2-fluorocyclopropane-1-carboxamide]", "Ki": 4.97}
{"compound": "COCc1ccncc1-c1cc2cc(NC(=O)[C@H]3C[C@@H]3C#N)ncc2c(N)n1", "note": "(racemic) [Compound 228, (+/−)-trans-N-(8-amino-6-(4-(methoxymethyl)pyridin-3-yl)-2,7-naphthyridin-3-yl)-2-cyanocyclopropanecarboxamide]", "Ki": 11}
{"compound": "Cc1ccncc1-c1cc2cc(NC(=O)[C@@H]3C[C@H]3F)ncc2c(N)n1", "note": "(single isomer, unassigned) [Compound 107, (trans)-N-(8-amino-6-(4-methylpyridin-3-yl)-2,7-naphthyridin-3-yl)-2-fluorocyclopropane-1-carboxamide]", "Ki": 0.654}
{"compound": "Cc1ccncc1-c1cc2cc(NC(=O)[C@@H]3C[C@H]3CC#N)ncc2c(N)n1", "note": "(racemic) [Compound 212, (+/−)-trans-N-(8-amino-6-(4-methylpyridin-3-yl)-2,7-naphthyridin-3-yl)-2-(cyanomethyl)cyclopropanecarboxamide]", "Ki": 0.685}
{"compound": "N#C[C@H]1C[C@@H]1C(=O)Nc1cc2cc(-c3cn[nH]c3C(F)(F)F)nc(N)c2cn1", "note": "(racemic) [Compound 132, (±)-trans-N-[8-amino-6-[5-(trifluoromethyl)-1H-pyrazol-4-yl]-2,7-naphthyridin-3-yl]-2-cyano-cyclopropanecarboxamide]", "Ki": 6.5}
{"molecular_target": "HPK1 (Homo sapiens, UniProt Q92918)", "assay": "HPK1 Lantha Binding Assay (\"Lanth\")", "conditions": "Table B1-2, read-out: HPK1 Ki, L = Lanth", "how_it_was_run": "as §1", "units": {"Ki": "nM"}}
{"compound": "Cc1ccnc(Cc2ccccc2)c1-c1cc2cc(NC(=O)[C@H]3C[C@@H]3c3cnn(C)c3)ncc2c(N)n1", "note": "(racemic) [Compound 427, (+/−)-trans-N-(8-amino-6-(2-benzyl-4-methylpyridin-3-yl)-2,7-naphthyridin-3-yl)-2-(1-methyl-1H-pyrazol-4-yl)cyclopropane-1-carboxamide]", "Ki": 0.78}
{"compound": "Cc1cc(-n2cccn2)ncc1-c1cc2cc(NC(=O)[C@H]3C[C@@H]3c3cnn(C)c3)ncc2c(N)n1", "note": "(single isomer, unassigned) [Compound 398]", "Ki": 30}
